From ChEMBL document CHEMBL4765295, “Synthesis, pharmacological profile and 2D-QSAR studies of curcumin-amino acid conjugates as potential drug candidates” (Eur J Med Chem, 2020)
Values joined by “and” are separate entries in the source; they are usually repeats but may differ in a detail not shown here. Equal entries are not always repeated.

Experiments:
Rattus norvegicus [1] = test: Antiinflammatory activity in Wistar rat model of carrageenan-induced paw edema assessed as reduction in thickness of paw edema at 10 mg/kg, ip pretreated for 1 hr followed by carrageenan challenge and measured after 1 hr (reference value: 2.41 +/-0.05 mm); assay type: functional; conditions: time 1 hr after carrageenan
Rattus norvegicus [2] = test: Anti-inflammatory activity in Wistar rat assessed as inhibition of carrageenan-induced paw edema at 10 mg/kg, ip pretreated for 1 hr followed by carrageenan challenge and measured after 1 hr relative to control (reference value: 0.00 +/-0.02 %); assay type: functional; conditions: time 2 hrs
Rattus norvegicus [3] = test: Antiinflammatory activity in Wistar rat model of carrageenan-induced paw edema assessed as reduction in thickness of paw edema at 10 mg/kg, ip pretreated for 1 hr followed by carrageenan challenge and measured after 2 hrs (reference value: 2.06 +/-0.09 mm); assay type: functional; conditions: time 3 hrs
Rattus norvegicus [4] = test: Anti-inflammatory activity in Wistar rat assessed as inhibition of carrageenan-induced paw edema at 10 mg/kg, ip pretreated for 1 hr followed by carrageenan challenge and measured after 2 hr relative to control (reference value: 0.00 +/-0.03 %); assay type: functional; conditions: time 3 hrs
Rattus norvegicus [5] = test: Antiinflammatory activity in Wistar rat model of carrageenan-induced paw edema assessed as reduction in thickness of paw edema at 10 mg/kg, ip pretreated for 1 hr followed by carrageenan challenge and measured after 3 hrs (reference value: 1.79 +/-0.07 mm); assay type: functional; conditions: time 4 hrs
Rattus norvegicus [6] = test: Anti-inflammatory activity in Wistar rat assessed as inhibition of carrageenan-induced paw edema at 10 mg/kg, ip pretreated for 1 hr followed by carrageenan challenge and measured after 3 hr relative to control (reference value: 0.00 +/-0.1 %); assay type: functional; conditions: time 4 hrs
Rattus norvegicus [7] = test: Antiinflammatory activity in Wistar rat model of carrageenan-induced paw edema assessed as reduction in thickness of paw edema at 10 mg/kg, ip pretreated for 1 hr followed by carrageenan challenge and measured after 4 hrs (reference value: 1.40 +/-0.10 mm); assay type: functional; conditions: time 5 hrs
Rattus norvegicus [8] = test: Anti-inflammatory activity in Wistar rat assessed as inhibition of carrageenan-induced paw edema at 10 mg/kg, ip pretreated for 1 hr followed by carrageenan challenge and measured after 4 hr relative to control (reference value: 0.00 +/-0.4 %); assay type: functional; conditions: time 5 hrs
Rattus norvegicus [9] = test: Antiinflammatory activity in Wistar rat model of carrageenan-induced paw edema assessed as reduction in thickness of paw edema at 10 mg/kg, ip pretreated for 1 hr followed by carrageenan challenge and measured after 24 hrs (reference value: 0.83 +/-0.08 mm); assay type: functional; conditions: time 25 hrs
Rattus norvegicus [10] = test: Anti-inflammatory activity in Wistar rat assessed as inhibition of carrageenan-induced paw edema at 10 mg/kg, ip pretreated for 1 hr followed by carrageenan challenge and measured after 24 hr relative to control (reference value: 0.00 +/-0.3 %); assay type: functional; conditions: time 25 hrs
Rattus norvegicus [11] = test: Anti-inflammatory activity in Wistar rat assessed as inhibition of carrageenan-induced paw edema at 10 mg/kg, ip pretreated for 1 hr followed by carrageenan challenge and measured after 4 hr relative to indomethacin; assay type: functional; conditions: time 5 hrs
[12] = Ulcerogenic activity in fasted albino mouse assessed as incidence of gastric ulceration at 10 mg/kg, po for 3 days (reference value: 0 %); assay type: toxicity, organism-based; conditions: in vivo, 72 h, time 3 day
[13] = Ulcerogenic activity in fasted albino mouse assessed as average number of ulcers in gastric mucosa at 10 mg/kg, po for 3 days (reference value: 0); assay type: toxicity, organism-based; conditions: in vivo, 72 h, time 3 day
[14] = Ulcerogenic activity in fasted albino mouse assessed as average severity of ulcers in gastric mucosa at 10 mg/kg, po for 3 days (reference value: 0); assay type: toxicity, organism-based; conditions: in vivo, 72 h, time 3 day
[15] = Ulcerogenic activity in fasted albino mouse assessed as ulcer index in gastric mucosa at 10 mg/kg, po for 3 days (reference value: 0); assay type: toxicity, organism-based; conditions: in vivo, 72 h, time 3 day
Splenocyte [16] = test: Immunomodulatory activity in Swiss albino mouse splenocytes assessed as cell viability at 10 uM by measuring stimulation index incubated for 72 hrs in presence of mitogenic stimulus phytohaemagglutinin by MTT assay (reference value: 1.00 +/- 0.24); assay type: functional
Splenocyte [17] = test: Immunomodulatory activity in Swiss albino mouse splenocytes assessed as cell viability at 10 uM by measuring inhibition of stimulation index incubated for 72 hrs in presence of mitogenic stimulus phytohaemagglutinin by MTT assay relative to indomethacin; assay type: functional; conditions: read-out: Activity
Peritoneal macrophage [18] = test: Antiinflammatory activity in […] mouse Peritoneal macrophages assessed as reduction in LPS-induced NO production by measuring reduction in stimulation index at 10 uM preincubated for 1 hr followed by LPS stimulation measured after 24 hrs by Griess method (reference value: 27.31 +/- 2.56 uM); assay type: functional; conditions: time 25 hrs
Peritoneal macrophage [19] = test: Antiinflammatory activity in […] mouse Peritoneal macrophages assessed as inhibition of LPS-induced NO production at 10 uM preincubated for 1 hr followed by LPS stimulation measured after 24 hrs by Griess method relative to control (reference value: 0.0 %); assay type: functional; parameters: scale not given: the % may be the effect or the level left; conditions: time 25 hrs
Mus musculus [20] = test: Analgesic activity in albino mouse assessed reduction in acetic acid-induced abdominal writhing by measuring writing reflex at 10 mg/kg, ip pretreated for 1 hr followed by acetic acid challenge and measured starting 5 mins post acetic acid challenge for 10 mins (reference value: 42.4 +/- 1.02); assay type: functional; conditions: time 75 min, 1.25 h
Mus musculus [21] = test: Analgesic activity in albino mouse assessed protection against acetic acid-induced abdominal writhing at 10 mg/kg, ip pretreated for 1 hr followed by acetic acid challenge and measured starting 5 mins post acetic acid challenge for 10 mins relative to control (reference value: 0 %); assay type: functional; conditions: time 75 min, 1.25 h
Mus musculus [22] = test: Analgesic activity in albino mouse assessed protection against acetic acid-induced abdominal writhing at 10 mg/kg, ip pretreated for 1 hr followed by acetic acid challenge and measured starting 5 mins post acetic acid challenge for 10 mins relative to indomethacin; assay type: functional; conditions: time 75 min, 1.25 h
Mus musculus [23] = test: Analgesic activity in albino mouse assessed as forepaw licking/jumping latency time at 10 mg/kg, ip measured after 30 mins by hot plate test (reference value: 5.02 +/- 0.09 sec); assay type: functional; conditions: 0.5 h
Mus musculus [24] = test: Analgesic activity in albino mouse assessed as protection at 10 mg/kg, ip measured after 30 mins by hot plate test (reference value: 0 %); assay type: functional; conditions: 0.5 h
Mus musculus [25] = test: Analgesic activity in albino mouse assessed as forepaw licking/jumping latency time at 10 mg/kg, ip measured after 60 mins by hot plate test (reference value: 3.42 +/- 0.03 sec); assay type: functional; conditions: 1 h
Mus musculus [26] = test: Analgesic activity in albino mouse assessed as protection at 10 mg/kg, ip measured after 60 mins by hot plate test (reference value: 0 %); assay type: functional; conditions: 1 h
Mus musculus [27] = test: Analgesic activity in albino mouse assessed as forepaw licking/jumping latency time at 10 mg/kg, ip measured after 90 mins by hot plate test (reference value: 2.72 +/- 0.01 sec); assay type: functional; conditions: 1.5 h
Mus musculus [28] = test: Analgesic activity in albino mouse assessed as protection at 10 mg/kg, ip measured after 90 mins by hot plate test (reference value: 0 %); assay type: functional; conditions: 1.5 h
Mus musculus [29] = test: Analgesic activity in albino mouse assessed as forepaw licking/jumping latency time at 10 mg/kg, ip measured after 120 mins by hot plate test (reference value: 2.62 +/- 0.06 sec); assay type: functional; conditions: 2 h
Mus musculus [30] = test: Analgesic activity in albino mouse assessed as protection at 10 mg/kg, ip measured after 120 mins by hot plate test (reference value: 0 %); assay type: functional; conditions: 2 h
Mus musculus [31] = test: Analgesic activity in albino mouse assessed as protection at 10 mg/kg, ip measured after 120 mins by hot plate test relative to indomethacin; assay type: functional; conditions: 2 h
Staphylococcus aureus = test: Antibacterial activity against Staphylococcus aureus ATCC 25923 incubated for 18 hrs by agar dilution method; assay type: functional
Streptococcus pyogenes = test: Antibacterial activity against Streptococcus pyogenes ATCC 19615 incubated for 18 hrs by agar dilution method; assay type: functional
Salmonella typhimurium = test: Antibacterial activity against Salmonella typhimurium ATCC 19430 incubated for 18 hrs by agar dilution assay; assay type: functional, Salmonella enterica subsp. enterica serovar Typhimurium; conditions: Salmonella enterica
Pseudomonas aeruginosa = test: Antibacterial activity against Pseudomonas aeruginosa ATCC 27853 incubated for 18 hrs by agar dilution assay; assay type: functional
Candida albicans = test: Antifungal activity against Candida albicans incubated for 18 to 24 hrs by CLSI method; assay type: functional; conditions: time 18-24 hrs
[32] = Toxicity in albino mouse assessed as induction of toxic symptoms at 50 to 100 mg/kg, ip measured after 24 hrs; assay type: organism-based; conditions: in vivo, dose 50-100 mg/kg

## COc1cc(/C=C/C(=O)/C=C(O)/C=C/c2ccc(OC(=O)[C@@H](C)NC(=O)OCc3ccccc3)c(OC)c2)ccc1OC(=O)[C@@H](C)NC(=O)OCc1ccccc1
Rattus norvegicus [1]
  Activity: 0.43 mm
Rattus norvegicus [2]
  inhibition in vivo at 10 mg/kg: 82%
Rattus norvegicus [3]
  Activity: 0.23 mm
Rattus norvegicus [4]
  inhibition in vivo at 10 mg/kg: 89%
Rattus norvegicus [5]
  Activity: 0.09 mm
Rattus norvegicus [6]
  inhibition in vivo at 10 mg/kg: 95%
Rattus norvegicus [7]
  Activity: 0 mm
Rattus norvegicus [8]
  inhibition in vivo at 10 mg/kg: 100%
Rattus norvegicus [9]
  Activity: 0.42 mm
Rattus norvegicus [10]
  inhibition in vivo at 10 mg/kg: 49%
Rattus norvegicus [11]
  inhibition in vivo at 10 mg/kg: 115%
[12]
  Activity: 0%
[13]
  Activity: 0
[14]
  Activity: 0
[15]
  UI: 0
Splenocyte [16]
  Activity_index: 1.59
Splenocyte [17]
  viability at 10 µM: 76%
Peritoneal macrophage [18]
  Activity: 17.63 µM
Peritoneal macrophage [19]
  Activity: 35.45%
Mus musculus [20]
  Activity: 14.4
Mus musculus [21]
  Activity: 66%
Mus musculus [22]
  Activity: 107.1%
Mus musculus [23]
  Time: 5.6 s
Mus musculus [24]
  Activity: 11.6%
Mus musculus [25]
  Time: 3.7 s
Mus musculus [26]
  Activity: 8.2%
Mus musculus [27]
  Time: 3.42 s
Mus musculus [28]
  Activity: 25.7%
Mus musculus [29]
  Time: 3.28 s
Mus musculus [30]
  Activity: 25.2%
Mus musculus [31]
  Activity: 60%
Staphylococcus aureus
  MIC: 0.5 µg/mL and 0.642 µM
Streptococcus pyogenes
  MIC: 0.125 µg/mL and 0.161 µM
Salmonella typhimurium
  MIC: 0.5 µg/mL and 0.642 µM
Pseudomonas aeruginosa
  MIC: 1 µg/mL and 1.28 µM
Candida albicans
  MIC: 0.5 µg/mL and 0.642 µM
[32]
  Activity: Non-Toxic
